Measurements from ChEMBL document CHEMBL1201862, “PubChem BioAssay data set” (2004).
Calls of active or inactive are those of the source.

How the values were obtained:
HeLa = test: HeLa cell cytotoxicity, dose response, cytotoxicity control for MITF activator project, CellTiter-Glo luminescence, cherry-pick samples (AID 540259); assay type: functional, cell-based; conditions: Homo sapiens
Cysteine protease ATG4B = target: T1, Cysteine protease ATG4B (Homo sapiens, UniProt Q9Y4P1); assay type: functional;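 further: Fluorescence-based dose-response confirmation assay measuring inhibition of ATG4B activity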
T1 sequence (Q9Y4P1 whole entry): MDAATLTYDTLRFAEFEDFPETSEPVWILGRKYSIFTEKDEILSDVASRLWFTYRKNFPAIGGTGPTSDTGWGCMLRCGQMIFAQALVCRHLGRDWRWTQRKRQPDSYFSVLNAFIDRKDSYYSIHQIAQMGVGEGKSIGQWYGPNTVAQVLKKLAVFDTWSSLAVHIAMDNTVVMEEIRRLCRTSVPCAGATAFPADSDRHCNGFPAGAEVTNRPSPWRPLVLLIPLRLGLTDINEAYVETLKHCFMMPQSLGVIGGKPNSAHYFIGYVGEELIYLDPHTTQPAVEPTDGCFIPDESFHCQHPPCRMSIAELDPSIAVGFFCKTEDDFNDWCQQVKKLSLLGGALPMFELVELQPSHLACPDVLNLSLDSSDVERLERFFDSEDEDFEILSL

Phospholipase A2 = Phospholipase A2 (Homo sapiens, UniProt P04054); assay type: functional;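 further: confirmatory dose-response counterscreen on phospholipase A2, testing hits that came from an ultra-high-throughput screen for ATG4B inhibitors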
Chain of Phospholipase A2 (P04054 whole entry): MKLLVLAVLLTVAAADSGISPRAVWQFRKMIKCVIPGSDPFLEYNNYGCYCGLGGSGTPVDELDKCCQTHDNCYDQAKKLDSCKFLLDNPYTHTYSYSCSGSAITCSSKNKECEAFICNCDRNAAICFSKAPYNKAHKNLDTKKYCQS

[1] = target: Voltage-gated inwardly rectifying potassium channel KCNH2 (Homo sapiens, UniProt Q12809); conditions: Potency;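 further: confirmatory quantitative high-throughput screen measuring inhibition of hERG channel activity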
Chain of Voltage-gated inwardly rectifying potassium channel KCNH2 (Q12809 whole entry): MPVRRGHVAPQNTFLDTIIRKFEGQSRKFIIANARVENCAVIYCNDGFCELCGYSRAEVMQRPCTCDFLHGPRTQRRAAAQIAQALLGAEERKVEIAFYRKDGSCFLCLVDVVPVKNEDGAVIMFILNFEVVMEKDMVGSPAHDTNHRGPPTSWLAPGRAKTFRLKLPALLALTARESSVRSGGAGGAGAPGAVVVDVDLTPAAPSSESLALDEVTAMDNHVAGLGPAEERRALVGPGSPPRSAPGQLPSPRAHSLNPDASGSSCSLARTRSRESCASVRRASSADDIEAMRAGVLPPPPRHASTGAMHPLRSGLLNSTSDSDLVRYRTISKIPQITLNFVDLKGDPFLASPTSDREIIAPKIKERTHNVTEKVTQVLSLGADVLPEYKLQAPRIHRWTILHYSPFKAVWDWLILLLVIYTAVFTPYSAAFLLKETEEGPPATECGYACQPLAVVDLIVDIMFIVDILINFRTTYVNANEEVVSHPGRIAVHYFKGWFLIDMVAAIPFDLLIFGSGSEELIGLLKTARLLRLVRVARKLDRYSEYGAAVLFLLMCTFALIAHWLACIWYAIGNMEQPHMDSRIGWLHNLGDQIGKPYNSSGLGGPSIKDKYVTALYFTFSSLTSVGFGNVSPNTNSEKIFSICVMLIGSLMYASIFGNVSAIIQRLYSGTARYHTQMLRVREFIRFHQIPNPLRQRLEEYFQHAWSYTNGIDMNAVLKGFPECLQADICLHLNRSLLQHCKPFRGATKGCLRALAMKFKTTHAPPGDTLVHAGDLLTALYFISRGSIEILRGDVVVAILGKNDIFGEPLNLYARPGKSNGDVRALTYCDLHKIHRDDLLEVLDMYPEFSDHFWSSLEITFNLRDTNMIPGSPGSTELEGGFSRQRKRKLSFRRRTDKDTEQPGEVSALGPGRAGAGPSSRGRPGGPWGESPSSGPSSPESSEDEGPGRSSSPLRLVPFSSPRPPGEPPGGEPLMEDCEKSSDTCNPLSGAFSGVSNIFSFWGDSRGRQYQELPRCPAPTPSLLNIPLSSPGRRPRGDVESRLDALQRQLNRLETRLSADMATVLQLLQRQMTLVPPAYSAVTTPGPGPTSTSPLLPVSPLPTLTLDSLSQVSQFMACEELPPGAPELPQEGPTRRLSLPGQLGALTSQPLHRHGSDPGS

[2] = inhibitors of intracellular T. cruzi replication, confirmation, NIH3T3 host cells, beta-gal luminescence (AID 2044); assay type: functional, cell-based;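 further: intracellular parasites grown in NIH/3T3 mouse fibroblasts as host cells; luminescent beta-galactosidase reporter signal from transgenic T. cruzi replicating inside host cells; inhibitors lower the luminescence signal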
Vero = test: cells; assay type: functional, cell-based; conditions: Chlorocebus sabaeus
[3] = Luminescence Cell-Based Dose Response HTS to Identify Inhibitors of 5'UTR Stem-Loop Driven Prion Protein mRNA Translation in H4 Neuroglioblastoma Cells. [Related pubchem assays: 1827 (Project Summary), 1813 (Primary HTS)]; assay type: functional
[4] = cytotoxicity toward NIH3T3 fibroblasts, dose response, counter-screen, cell-based, ATP luminescence, mouse fibroblasts (AID 2010); assay type: functional;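 further: cells exposed to compound for about 90 hours before reading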
[5] = inhibitors of SNCA 5'UTR-driven reporter translation, confirmation, H4 neuroglioma cells, luminescence (AID 1988); assay type: functional, cell-based
[6] = HEp-2 cell cytotoxicity, dose response, cytotoxicity control for RSV inhibitor project, HTS (AID 2410); assay type: functional; conditions: human respiratory syncytial virus
cells [7] = test: cells
[8] = inhibitors of firefly luciferase expression or activity, dose response, H4 neuroglioma cells, luminescence (AID 1990); assay type: functional, cell-based
[9] = target: Dual specificity tyrosine-phosphorylation-regulated kinase 1A (Rattus norvegicus, UniProt Q63470); assay type: biochemical, Homo sapiens
Large T antigen = Large T antigen (Simian virus 40, UniProt P03070); assay type: functional, Betapolyomavirus macacae;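 further: Confirmatory-stage PubChem screen for compounds that inhibit SV40 T antigen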
Chain of Large T antigen (P03070 whole entry): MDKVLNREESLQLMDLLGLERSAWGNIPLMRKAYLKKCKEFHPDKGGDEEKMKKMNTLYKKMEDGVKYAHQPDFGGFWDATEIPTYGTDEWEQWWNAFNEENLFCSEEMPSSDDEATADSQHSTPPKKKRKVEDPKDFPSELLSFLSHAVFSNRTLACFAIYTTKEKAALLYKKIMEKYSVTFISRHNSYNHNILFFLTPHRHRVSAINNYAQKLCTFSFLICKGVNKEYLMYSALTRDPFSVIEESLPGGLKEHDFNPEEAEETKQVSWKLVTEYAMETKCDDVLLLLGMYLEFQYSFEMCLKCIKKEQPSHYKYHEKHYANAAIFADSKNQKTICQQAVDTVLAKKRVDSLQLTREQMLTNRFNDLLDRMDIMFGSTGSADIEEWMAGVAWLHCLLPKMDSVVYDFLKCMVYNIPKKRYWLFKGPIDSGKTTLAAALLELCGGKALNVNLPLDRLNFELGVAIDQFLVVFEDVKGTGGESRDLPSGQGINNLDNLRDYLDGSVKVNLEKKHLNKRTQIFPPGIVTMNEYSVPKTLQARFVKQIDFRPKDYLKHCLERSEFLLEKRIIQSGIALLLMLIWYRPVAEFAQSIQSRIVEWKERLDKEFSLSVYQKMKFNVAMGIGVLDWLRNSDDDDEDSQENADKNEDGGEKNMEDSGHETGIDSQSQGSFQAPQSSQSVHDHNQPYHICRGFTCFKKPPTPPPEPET

[10] = target: 72 kDa type IV collagenase (Homo sapiens, UniProt P08253); test: Dose Response validation of uHTS RPN11 inhibitor hits using a MMP-2 Fluorescence assay.; assay type: functional
Chain of 72 kDa type IV collagenase (P08253 whole entry): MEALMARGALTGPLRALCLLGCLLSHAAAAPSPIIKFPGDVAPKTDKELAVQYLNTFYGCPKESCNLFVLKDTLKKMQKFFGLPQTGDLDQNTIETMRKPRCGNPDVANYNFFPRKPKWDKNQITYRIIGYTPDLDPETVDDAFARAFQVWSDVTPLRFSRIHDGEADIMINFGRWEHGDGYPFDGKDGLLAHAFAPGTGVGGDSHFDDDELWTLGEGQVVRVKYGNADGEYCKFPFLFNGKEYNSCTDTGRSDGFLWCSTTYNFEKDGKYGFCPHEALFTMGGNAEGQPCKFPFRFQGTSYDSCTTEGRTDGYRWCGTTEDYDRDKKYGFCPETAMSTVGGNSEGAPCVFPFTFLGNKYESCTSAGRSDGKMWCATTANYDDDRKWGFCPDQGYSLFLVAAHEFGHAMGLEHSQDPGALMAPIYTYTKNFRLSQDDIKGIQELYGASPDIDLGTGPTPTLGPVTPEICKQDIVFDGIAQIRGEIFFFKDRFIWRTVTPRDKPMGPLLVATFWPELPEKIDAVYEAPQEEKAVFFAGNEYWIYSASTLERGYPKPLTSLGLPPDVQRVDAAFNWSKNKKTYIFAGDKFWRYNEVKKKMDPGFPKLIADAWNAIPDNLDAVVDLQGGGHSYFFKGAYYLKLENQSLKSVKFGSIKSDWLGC

Prothrombin = Prothrombin (Bos taurus, UniProt P00735); test: thrombin inhibition, dose response, biochemical, fluorescence polarization, uHTS hits (AID 602369); assay type: functional
[11] = P. falciparum Dd2 growth inhibitors, dose response, SYBR Green, cherry-picked samples (AID 1159567); assay type: functional, cell-based
[12] = target: 26S proteasome non-ATPase regulatory subunit 14 (Homo sapiens, UniProt O00487); test: inhibition of proteasome subunit RPN11 – biochemical, fluorescence polarization, uHTS hits, confirmation (AID 602368); assay type: functional
Chain of 26S proteasome non-ATPase regulatory subunit 14 (O00487 whole entry): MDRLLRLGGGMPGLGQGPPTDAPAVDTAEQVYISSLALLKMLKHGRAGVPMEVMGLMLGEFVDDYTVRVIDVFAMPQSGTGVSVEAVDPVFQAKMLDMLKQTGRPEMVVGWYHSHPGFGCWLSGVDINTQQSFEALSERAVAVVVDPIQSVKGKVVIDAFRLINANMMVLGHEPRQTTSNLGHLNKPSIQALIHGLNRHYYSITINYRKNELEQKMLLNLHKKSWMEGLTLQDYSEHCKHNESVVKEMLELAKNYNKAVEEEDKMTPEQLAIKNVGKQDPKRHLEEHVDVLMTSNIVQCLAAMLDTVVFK

[13] = HeLa cell cytotoxicity, dose response, cytotoxicity control for MgcRacGAP inhibitor project (AID 624300); assay type: functional
[14] = target: T2, Corticotropin-releasing factor receptor 2/Corticotropin-releasing factor-binding protein (Homo sapiens, UniProt P24387+Q13324); test: activators of CRF receptor 2 with binding protein – uHTS hits, confirmation (AID 602473); assay type: functional; conditions: read-out: EC50_Mean
T2 sequence (Q13324 whole entry): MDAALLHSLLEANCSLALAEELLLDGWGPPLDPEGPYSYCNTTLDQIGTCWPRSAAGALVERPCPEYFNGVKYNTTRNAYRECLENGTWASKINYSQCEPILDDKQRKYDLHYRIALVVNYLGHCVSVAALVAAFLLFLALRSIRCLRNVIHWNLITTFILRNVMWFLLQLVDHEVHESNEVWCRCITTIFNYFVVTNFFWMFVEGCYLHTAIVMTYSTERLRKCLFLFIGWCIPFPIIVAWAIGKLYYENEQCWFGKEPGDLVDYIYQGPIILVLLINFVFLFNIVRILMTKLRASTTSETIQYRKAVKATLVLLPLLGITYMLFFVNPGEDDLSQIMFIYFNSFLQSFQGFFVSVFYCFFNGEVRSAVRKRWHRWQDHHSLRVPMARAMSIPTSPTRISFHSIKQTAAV
T2 sequence (P24387 whole entry): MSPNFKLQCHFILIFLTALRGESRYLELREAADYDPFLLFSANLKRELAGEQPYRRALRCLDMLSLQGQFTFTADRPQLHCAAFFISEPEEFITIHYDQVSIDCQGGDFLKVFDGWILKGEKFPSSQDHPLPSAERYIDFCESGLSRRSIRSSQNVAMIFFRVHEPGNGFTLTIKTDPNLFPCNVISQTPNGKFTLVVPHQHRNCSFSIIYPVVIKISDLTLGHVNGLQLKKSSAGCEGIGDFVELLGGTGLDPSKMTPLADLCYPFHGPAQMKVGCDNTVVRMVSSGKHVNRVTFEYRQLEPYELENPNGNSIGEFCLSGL

[15] = target: T3, Rac GTPase-activating protein 1 (Homo sapiens, UniProt Q9H0H5); test: MgcRacGAP GTPase-activating activity inhibitors, confirmation, biochemical, ADP Hunter fluorescence, primary and confirmatory (AID 624330); assay type: functional
T3 sequence (Q9H0H5 whole entry): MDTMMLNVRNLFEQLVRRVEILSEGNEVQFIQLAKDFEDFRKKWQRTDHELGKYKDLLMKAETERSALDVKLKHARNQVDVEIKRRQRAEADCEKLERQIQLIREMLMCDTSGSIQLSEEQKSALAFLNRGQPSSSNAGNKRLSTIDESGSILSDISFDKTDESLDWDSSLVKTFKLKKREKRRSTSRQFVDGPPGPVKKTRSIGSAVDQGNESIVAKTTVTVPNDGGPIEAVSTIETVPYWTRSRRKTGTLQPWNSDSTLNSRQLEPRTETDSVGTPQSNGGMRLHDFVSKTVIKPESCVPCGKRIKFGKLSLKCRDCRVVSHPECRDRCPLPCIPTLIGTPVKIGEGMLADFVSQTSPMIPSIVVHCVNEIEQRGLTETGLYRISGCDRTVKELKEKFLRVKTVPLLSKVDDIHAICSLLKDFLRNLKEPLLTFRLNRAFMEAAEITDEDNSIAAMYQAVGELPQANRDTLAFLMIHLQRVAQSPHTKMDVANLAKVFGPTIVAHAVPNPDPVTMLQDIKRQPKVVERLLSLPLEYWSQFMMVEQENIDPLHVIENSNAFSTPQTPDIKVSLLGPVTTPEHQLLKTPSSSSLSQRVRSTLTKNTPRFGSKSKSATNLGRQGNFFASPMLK

Cytochrome P450 3A4 [16] = target: T4, Cytochrome P450 3A4 (Homo sapiens, UniProt P08684); conditions: Potency
T4 sequence (P08684 whole entry): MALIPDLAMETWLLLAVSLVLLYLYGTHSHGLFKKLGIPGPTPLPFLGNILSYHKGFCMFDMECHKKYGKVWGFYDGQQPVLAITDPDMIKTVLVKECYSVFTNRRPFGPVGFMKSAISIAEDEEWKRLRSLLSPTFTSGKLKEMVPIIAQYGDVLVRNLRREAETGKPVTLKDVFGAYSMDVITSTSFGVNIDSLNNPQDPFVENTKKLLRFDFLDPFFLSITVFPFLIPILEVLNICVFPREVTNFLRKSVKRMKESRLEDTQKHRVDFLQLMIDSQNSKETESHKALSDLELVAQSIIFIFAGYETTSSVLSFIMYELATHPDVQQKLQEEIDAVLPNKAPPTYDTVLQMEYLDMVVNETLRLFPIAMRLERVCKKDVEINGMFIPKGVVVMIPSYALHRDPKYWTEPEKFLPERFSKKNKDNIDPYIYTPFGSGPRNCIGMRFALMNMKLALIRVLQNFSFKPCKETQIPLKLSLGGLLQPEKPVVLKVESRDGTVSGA

Protein Wnt-3a = Protein Wnt-3a (Mus musculus, UniProt P27467); test: Wnt3a-driven reporter signaling inhibition, dose response, selectivity assay for Gli-SUFU antagonist project, Wnt-LIGHT cells, luminescence (AID 651570); assay type: functional; conditions: read-out: IC50_Mean;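 further: Wnt-LIGHT reporter cells stimulated with conditioned medium from Wnt3a-producing cells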
Chain of Protein Wnt-3a (P27467 whole entry): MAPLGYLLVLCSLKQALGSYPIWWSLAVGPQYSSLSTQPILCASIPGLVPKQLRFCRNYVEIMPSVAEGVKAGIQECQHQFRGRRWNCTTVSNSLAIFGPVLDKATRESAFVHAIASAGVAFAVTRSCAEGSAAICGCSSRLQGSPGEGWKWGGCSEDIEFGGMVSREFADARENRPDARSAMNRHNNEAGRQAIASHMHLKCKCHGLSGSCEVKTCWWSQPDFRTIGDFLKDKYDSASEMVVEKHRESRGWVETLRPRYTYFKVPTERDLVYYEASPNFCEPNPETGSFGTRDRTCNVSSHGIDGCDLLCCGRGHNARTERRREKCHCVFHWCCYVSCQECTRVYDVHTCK

Escherichia coli = test: microbe, parasite or virus in culture
Cytochrome P450 1A2 = target: T5, Cytochrome P450 1A2 (Homo sapiens, UniProt P05177);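 further: PubChem cytochrome P450 panel assay, CYP1A2 panel member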
T5 sequence (P05177 whole entry): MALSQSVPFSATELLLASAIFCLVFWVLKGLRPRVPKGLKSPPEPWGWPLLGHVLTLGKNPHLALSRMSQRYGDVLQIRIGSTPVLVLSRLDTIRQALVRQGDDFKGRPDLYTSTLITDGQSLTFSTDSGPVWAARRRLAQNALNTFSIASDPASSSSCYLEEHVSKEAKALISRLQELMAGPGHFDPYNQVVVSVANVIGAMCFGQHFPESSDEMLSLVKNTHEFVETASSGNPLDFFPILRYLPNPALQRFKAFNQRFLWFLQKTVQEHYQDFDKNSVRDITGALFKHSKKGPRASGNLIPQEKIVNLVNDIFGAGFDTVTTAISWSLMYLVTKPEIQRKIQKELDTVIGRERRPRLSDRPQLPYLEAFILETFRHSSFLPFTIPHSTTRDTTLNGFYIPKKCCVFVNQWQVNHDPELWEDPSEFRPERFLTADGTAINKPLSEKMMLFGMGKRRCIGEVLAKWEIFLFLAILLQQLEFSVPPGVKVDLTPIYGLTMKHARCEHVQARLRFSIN

[17] = cytotoxicity in HEK-293T cells, dose response, cytotoxicity control for TCR NF-kB inhibitor project, luminescence, T-cell screen hits (AID 489026); assay type: functional, cell-based;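 further: cells exposed to compound about 14 hours before the viability readout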
Cytochrome P450 3A4 [18] = target: T4, Cytochrome P450 3A4
Cytochrome P450 2C9 = Cytochrome P450 2C9 (Homo sapiens, UniProt P11712)
Chain of Cytochrome P450 2C9 (P11712 whole entry): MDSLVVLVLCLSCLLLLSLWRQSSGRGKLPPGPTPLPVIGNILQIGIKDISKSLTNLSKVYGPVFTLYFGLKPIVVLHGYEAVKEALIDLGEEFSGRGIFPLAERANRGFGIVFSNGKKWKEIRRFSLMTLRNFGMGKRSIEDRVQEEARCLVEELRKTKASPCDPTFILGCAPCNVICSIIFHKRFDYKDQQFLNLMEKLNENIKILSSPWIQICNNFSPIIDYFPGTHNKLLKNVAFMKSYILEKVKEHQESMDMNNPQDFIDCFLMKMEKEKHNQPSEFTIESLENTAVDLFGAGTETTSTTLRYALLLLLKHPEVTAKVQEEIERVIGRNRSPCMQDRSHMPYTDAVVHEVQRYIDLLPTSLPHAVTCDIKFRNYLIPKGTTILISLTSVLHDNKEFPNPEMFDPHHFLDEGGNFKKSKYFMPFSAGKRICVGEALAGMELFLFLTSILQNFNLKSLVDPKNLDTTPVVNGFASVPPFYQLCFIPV

Cytochrome P450 2D6 = Cytochrome P450 2D6 (Homo sapiens, UniProt P10635);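 further: CYP2D6 member of a cytochrome P450 panel assay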
Chain of Cytochrome P450 2D6 (P10635 whole entry): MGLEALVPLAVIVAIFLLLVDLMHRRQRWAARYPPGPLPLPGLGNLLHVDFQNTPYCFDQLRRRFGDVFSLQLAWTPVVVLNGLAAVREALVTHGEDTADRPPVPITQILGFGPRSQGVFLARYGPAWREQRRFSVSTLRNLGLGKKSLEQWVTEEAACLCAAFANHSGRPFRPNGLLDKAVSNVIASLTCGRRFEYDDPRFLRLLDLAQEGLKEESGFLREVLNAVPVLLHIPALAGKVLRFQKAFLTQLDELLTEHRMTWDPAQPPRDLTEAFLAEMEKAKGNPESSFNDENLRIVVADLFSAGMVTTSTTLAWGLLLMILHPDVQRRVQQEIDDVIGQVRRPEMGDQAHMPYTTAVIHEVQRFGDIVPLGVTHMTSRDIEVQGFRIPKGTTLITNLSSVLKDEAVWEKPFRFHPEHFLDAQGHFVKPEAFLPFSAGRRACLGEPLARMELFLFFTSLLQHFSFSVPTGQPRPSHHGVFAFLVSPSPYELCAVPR

cells [19] = assay type: functional, cell-based
cells [20] = assay type: functional, cell-based; remark: listed apart in the source
Melanocortin receptor 4 = Melanocortin receptor 4 (Homo sapiens, UniProt P32245); assay type: functional, cell-based;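 further: Cell-based assay with luminescence read-out, confirmatory dose-response testing for agonist activity of biased ligands at MC4R; human U2OS cells with tagged receptor and beta-arrestin; potency of agonists that increase receptor coupling to beta-arrestin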

COC(=O)C1CCc2c(ccc3c2CCCC3)C1=O (stereo not drawn)
AC50 (HeLa): > 350 µM (inactive)

Cc1cccc2c1N(CCOc1ccc(C(C)(C)C)cc1)C(=O)C2=O
IC50 (Cysteine protease ATG4B): 5.76 µM (active)
IC50 (Phospholipase A2): 4.75 µM (active)

ClC(Cl)(Cl)C(Cl)(Cl)Cl [HEXACHLOROETHANE]
AC50 [1]: 39.8 µM (inconclusive)

Fc1ccc(C2c3[nH]c4ccccc4c3CCN2Cc2cccn2-c2ncccn2)cc1 (stereo not drawn)
EC50 [2]: 1.7 µM (active)
IC50 (Cysteine protease ATG4B): 17.1 µM (active)
IC50 (Vero): > 25 µM (active)
EC50 [3]: 13.1 µM (active)
EC50 [4]: > 60 µM (not active)
EC50 [5]: > 120 µM (not active)
CC50 [6]: 24 µM (active)
IC50 (cells [7]): 8.94 µM (active)
IC50 (Phospholipase A2): 15.5 µM (active)
EC50 [8]: 14.6 µM (active)

Cc1ccc(/N=c2\oc3cc(O)ccc3cc2C(N)=O)cc1
EC50 [2]: 3.69 µM (active)
EC50 [4]: > 60 µM (not active)
AC50 [9]: 0.074 µM (active)
IC50 (Large T antigen): 33.8 µM (active)

COc1ccccc1C(=O)Nc1ccc2c(C)cc(=O)oc2c1
AC50 (HeLa): 51.7 µM (active)

COc1ccc(C#Cc2ccc3c(c2)O[C@@H](CN(C)C(=O)Nc2cccc(OC)c2)[C@H](C)CN([C@@H](C)CO)S3(=O)=O)cc1
IC50 [10]: > 100 µM (inactive)
IC50 (Prothrombin): 42.8 µM (active)
AC50 [11]: 3.01 µM (active)
IC50 [12]: 30.5 µM (active)

Cc1cccc(N=C(S)Nc2ccc(Oc3ccccc3)cc2)n1
IC50 (Cysteine protease ATG4B): 22.5 µM (inactive)
IC50 (Phospholipase A2): 16.8 µM (active)

c1ccc(-c2ccc(-c3cnc4n3CCCCC4)cc2)cc1
AC50 (HeLa): 37.5 µM (active)

Cc1ccc(C(=O)Nc2ccc(C(=O)N/N=C/c3cccnc3)cc2)cc1
IC50 [10]: > 100 µM (inactive)
IC50 (Prothrombin): > 100 µM (inactive)
IC50 [12]: 30.5 µM (active)

O=C1NC(=S)S/C1=C\c1cc(Cl)cc(Cl)c1O
IC50 (Cysteine protease ATG4B): 3.47 µM (active)
CC50 [13]: 100 µM (active)
EC50 [14]: 7.19 µM (active)
IC50 [15]: 65.4 µM (active)
IC50 (Phospholipase A2): 14.8 µM (active)

CC(C)(C)c1ccc(OCC2CO2)cc1 (stereo not drawn)
AC50 [1]: 12.6 µM (inconclusive)

CCCCOCCOP(=O)(OCCOCCCC)OCCOCCCC
AC50 (Cytochrome P450 3A4 [16]): 25.1 µM (inconclusive)
AC50 [1]: 50.1 µM (inconclusive)

O=C(Nc1ccc2c(c1)CCC2)c1c(F)cccc1Cl
AC50 (HeLa): > 350 µM (inactive)

O=C(O)C1C2CCC(O2)C1C(=O)O (stereo not drawn)
AC50 [1]: 1.26 µM (inconclusive)

N=c1c(-c2nc3ccccc3[nH]2)cc(C(=O)c2ccco2)nn1-c1ccccc1
IC50 (Protein Wnt-3a): 16.8 µM (active)

Cc1noc(C)c1COC(=O)c1cccc(S(=O)(=O)N2CCOCC2)c1
AC50 (Escherichia coli): 44.7 µM (active)

CCOc1ccc(Nc2nc(O)c3c(n2)CCCC3)cc1
AC50 (Escherichia coli): 31.7 µM (active)

Cc1ccc(OCCNC(=O)c2cc(-n3cnnc3)ccc2Cl)cc1C
AC50 (Cytochrome P450 1A2): 28.2 µM (inconclusive)
AC50 (Escherichia coli): 51 µM (active)

O=C(Nc1ccc(O)cc1)c1c(O)nc2c(c1O)CCCC2
AC50 (HeLa): 76 µM (active)

O=C(N[C@@H](Cc1ccccc1)C(=O)CCl)OCc1ccccc1
IC50 [17]: > 80 µM (inactive)
AC50 (Cytochrome P450 3A4 [18]): 1.26 µM (inconclusive)
AC50 (Cytochrome P450 2C9): 12.6 µM (inconclusive)
AC50 [1]: 25.1 µM (inconclusive)
AC50 (Cytochrome P450 2D6): 39.8 µM (inconclusive)

Cc1cc(-c2ccccc2)cc(-c2ccccc2)[n+]1C
IC50 (Protein Wnt-3a): 5.02 µM (active)

COc1ccc2[nH]c(C(=O)N/N=C/c3ccccc3OC)cc2c1
EC50 (cells [19]): > 350 µM (not active)
AC50 [9]: 2.17 µM (active)
EC50 (cells [20]): > 350 µM (not active)

FC(F)(F)c1cccnc1Oc1ccc(C2=NCCS2)cc1
EC50 (Melanocortin receptor 4): > 89.1 µM (inactive)

Oc1ccc(/C=N/n2c(S)nnc2COc2ccccc2)c(O)c1
AC50 [9]: 0.796 µM (active)

CCCN(CCC)[C@@H]1CCc2cccc(O)c2C1
AC50 [1]: 15.8 µM (inconclusive)

CCn1c(/C=C/c2c[nH]c3ccccc23)nc2ccccc2c1=O
AC50 (HeLa): 50.7 µM (active)
